Values joined by “and” are separate entries in the source; they are usually repeats but may differ in a detail not shown here. Equal entries are not always repeated. “Also recorded” adds a separate entry of the source. Structures can show the parent of a compound that is named as a salt. Marks after values point to notes of the source that are not given here.
Experiments:
[1] = Clinical pharmacokinetics of esketamine (label)
glutamate NMDA receptor = assay: Affinity for the NMDA receptor in vitro; type: binding
[2] = Pharmacokinetics of intranasal esketamine in healthy subjects (Example 9)
Method: Blood samples (4 mL each) for determination of esketamine and noresketamine plasma concentrations were collected into the appropriate collection tube (e.g., Vacutainer®) at timepoints 0.00, 0.12, 0.20, 0.37, 0.53, 0.67, 0.83, 1.00, 1.25, 1.50, 2.00, 3.00, 4.00, 6.00, 9.00, 12.00, 18.00, and 24.00 h. The total amount of blood to be drawn for clinical laboratory tests and PK evaluations is approximately 327 mL.
Plasma samples were analyzed for esketamine and noresketamine concentrations using the validated, specific and sensitive liquid chromatography coupled to tandem mass spectrometry (LC-MS/MS) achiral method of Example 8.
Serial PK blood samples (4 mL each) were collected for a 24-hour period from each subject (Periods 1, 2, and 3). […] Statistical Methods 1.6.4.1. Sample Size
The following key parameters of esketamine and noresketamine in plasma were calculated using noncompartmental methods and actual sampling times: Cmax, tmax, AUClast, AUC∞, t1/2,λ, and λz.

[3] = test system: female Sprague-Dawley rats; assay: Single dose neurotoxicity study: mortality, clinical observations, body weight; type: in vivo, rat; details: for Abnormal respiration, incidence / Abnormal respiration: audible respiration, incidence / Abnormal respiration: bradypnoea, incidence / Ataxia, incidence / Catalepsy, incidence / Chromodacryorrhea, incidence / Decreased general activity, incidence / Decubitus, incidence / Increased general activity, incidence / Narrowed palpebral fissure, incidence / Piloerection, incidence / Salivation (out of normal), incidence: single dose
Method: The injection volume was 5 mL/kg.
(§1) Body weight and body weight gain were measured daily.

pregnant rabbits = assay: Embryo-fetal reproduction study, intranasal ketamine, pregnant rabbits; type: in vivo, rabbit
Method: (§2) Racemic ketamine was administered intranasally to pregnant rats during the period of organogenesis at doses of 15, 50, and 150 mg/kg/day. The No Observed Adverse Effect level (NOAEL) for embryo-fetal toxicity in rats was the highest dose of 150 mg/kg/day. […] In pregnant rabbits, racemic ketamine was administered intranasally from gestational day 6 to 18 at doses of 10, 30, and 100 mg/kg/day. The high dose was lowered from 100 to 50 mg/kg after 5 days of dosing due to excessive mortality in the pregnant rabbits.

mouse lymphoma = assay: In vitro mouse lymphoma test; details: in the presence of metabolic activation
pregnant rats = assay: Embryo-fetal toxicity, intranasal racemic ketamine, pregnant rats; type: in vivo, rat; details: estimating 50% of the exposure to be from esketamine
Method: as §2

[4] = as above; type: in vivo, rat; details: female, rat, in vivo, inhaled or intranasal; intranasal; period of organogenesis
Method: as §2

[5] = test system: adult female Sprague Dawley rats; details: 3 hours after a single intraperitoneal injection (Jevtovic-Todorovic 2000); cited from earlier work
adult rats = assay: Single-dose neuronal toxicity study, subcutaneous racemic ketamine (label); type: in vivo, rat
Method: (§3) In a single-dose neuronal toxicity study in adult rats, subcutaneously administered racemic ketamine caused neuronal vacuolation in layer I of the retrosplenial cortex of the brain without neuronal necrosis at a dose of 60 mg/kg. The NOAEL for vacuolation in this study was 15 mg/kg. […] The relevance of these findings to humans is unknown.

[6] = as above; type: in vivo, rat; details: rat, in vivo, sc; single subcutaneous dose; read-out: NOAEL for vacuolation
Method: as §3

Ames test = details: with or without metabolic activation
bone marrow = assay: In vivo bone marrow micronucleus test; parameters: species or system mice; details: intraperitoneally-injected
MDD/TRD subjects = details: 52-week safety study in MDD/TRD subjects (Berman et al., 2011); cited from earlier work
[7] = test system: posterior cingulate gyrus (PCG) and retrosplenial cortex (RSC); assay: 14-day repeated dose neurotoxicity study: brain histopathology (neuronal necrosis); details: up to 54 mg/day; 48 hours after the last instillation; hydrochloride
Method: The brain tissue of the vehicle control-, positive control- and esketamine HCl-treated rats were processed at the same time and handled in the same way in batches of 4 animals per group.
Brain tissue was sampled and processed routinely. The trimmed and embedded tissue was sectioned and stained with hematoxylin-eosin (HE). Histoprocessing and staining were carried out in three batches of 4 animals per group (each batch thus containing 4 animals from vehicle control-, positive control- and the three esketamine HCl-treated groups).
All tissues showing gross abnormalities were examined macroscopically. Histopathological examination was performed on 7 levels of brain tissue according to Bolon (2013. Toxicol. Pathol. 41(7), 1028-1048) from the vehicle control-, positive control-, and high dose esketamine HCl-treated groups in the single dose study, and in all groups in the repeated dose study.
The microscopic finding of neuronal necrosis in the PCG/RSC of the brain was graded unilaterally according to the number of necrotic neurons observed over the total length of the PCG/RSC structure visible in the tissue section (usually around 3-5 mm) utilizing the following criteria:

[8] = Solubility of esketamine HCl
Method: The clinical investigational product is an aqueous solution of the drug substance, esketamine hydrochloride (HCl). This formulation is administered intranasally to patients using a dual nasal spray device, which delivers one spray into each nostril. […] The formulation was stored at 37° C. for stability reasons until dosing.

[9] = test system: posterior cingulate gyrus (PCG) and retrosplenial cortex (RSC); assay: Single dose neurotoxicity study: brain histopathology (neuronal necrosis); details: single dose of 72 mg; 48 or 96 hours; hydrochloride
Method: In order to prepare for brain histopathology examination, all main study animals were perfused at necropsy. Prior to the perfusion, rats were anesthetized with isoflurane. After injection of 0.1 ml heparin, the blood of the rat was flushed out with a physiological saline solution by intraarterial insertion of a needle in the abdominal aorta. Thereafter the rat was perfused with glutaraldehyde 3% in potassium phosphate 0.09M and 1.4% sucrose.
The vehicle control, positive control, and esketamine HCl-dosed animals were sacrificed at either 48 hours (i.e., the first 12 or 15 rats per group) or 96 hours after the dose administration time (i.e., the last 12 or 15 rats per group). The brain tissue of the vehicle control-, positive control- and esketamine HCl-treated rats were processed at the same time and handled in the same way in batches of 4 or 5 animals per group.
Brain tissue was sampled and processed routinely. The trimmed and embedded tissue was sectioned and stained with hematoxylin-eosin (HE). Histoprocessing and staining were carried out in three batches of 4 animals per group (each batch thus containing 4 animals from vehicle control-, positive control- and the three esketamine HCl-treated groups). In the single dose study duplicate brain sections were stained with Fluoro-Jade (FJ).
All tissues showing gross abnormalities were examined macroscopically. […]

[10] = test system: female Sprague-Dawley rats; assay: 14-day repeated dose neurotoxicity study: mortality, clinical observations, body weight; type: in vivo, rat; details: 14 days
Method: as §1

[11] = noresketamine in plasma after esketamine 28 mg intranasal (A), n = 13
[12] = noresketamine in plasma after esketamine 56 mg intranasal (B), n = 13
[13] = noresketamine in plasma after esketamine 56 mg intranasal (B), n = 14
[14] = noresketamine in plasma after esketamine 84 mg intranasal (C), n = 12
[15] = noresketamine in plasma after esketamine 84 mg intranasal (C), n = 13
[16] = estimating 50% of the exposure to be from esketamine

Compound: N[C@]1(c2ccccc2Cl)CCCCC1=O [noresketamine]
- Brain-to-plasma ratio, times lower than that of esketamine ([1]; human, in vivo): 4- to 6 times
- Mean terminal t1/2 ([1]; noresketamine in plasma): approximately 8 hours
- Activity at the NMDA receptor relative to esketamine (glutamate NMDA receptor): less affinity
- AUC (AUClast and AUC∞) variability ([2]; noresketamine): 17.0% to 21.3
- Between-subject variability for Cmax ([2]; noresketamine): 25.8% to 33.7
- AUClast, mean [2, 11]: 454 ng·h/mL
- AUC∞, mean [2, 11]: 508 ng·h/mL
- Cmax, mean [2, 11]: 92.8 ng/mL
- t1/2, mean [2, 11]: 7.74 h
- tmax, median [2, 11]: 1.25 h
- AUC∞, mean [2, 12]: 924^c h * ng/mL
- t1/2, mean [2, 12]: 7.71^c h
- AUClast, mean [2, 13]: 851 ng·h/mL
- Cmax, mean [2, 13]: 154 ng/mL
- tmax, median [2, 13]: 1.50 h
- AUC∞, mean [2, 14]: 1392^b h * ng/mL
- t1/2, mean [2, 14]: 7.48^b h
- AUClast, mean [2, 15]: 1287 ng·h/mL
- Cmax, mean [2, 15]: 241 ng/mL
- tmax, median [2, 15]: 1.50 h
- Metabolite/Parent Ratio, AUC∞ ([2]; noresketamine/esketamine, esketamine 28 mg intranasal (A), n = 12): 3.80^b
- Inhibition of CYP3A4 (CYPs and UGTs): weak reversible inhibition

Compound: (+)MK-801 maleate [reference compound]
- Mortality ([3]; single subcutaneous dose 1 mg/kg, single dose or repeated dose study): No mortality

Compound: CNC1(c2ccccc2Cl)CCCCC1=O (racemic) [ketamine]
- Esketamine exposure (AUC) at the NOAEL for skeletal malformations, multiple of exposure at MRHD of 84 mg/day (pregnant rabbits): 0.3 times
- Mutagenicity (mouse lymphoma): positive
- Esketamine AUC at the NOAEL, multiple of AUC at the MRHD of 84 mg/day (pregnant rats): 12 times
- NOAEL [4]: 150 mg/kg/day
- ED50-value for the induction of neuronal vacuolation in the PCG/RSC [5]: 47.5 mg/kg body weight
- NOAEL for neuronal necrosis, multiple of clinical exposure at the MRHD, AUC (adult rats; [16]): 10 times
- NOAEL for neuronal necrosis, multiple of clinical exposure at the MRHD, Cmax (adult rats; [16]): 16 times
- NOAEL for neuronal vacuolation, multiple of clinical exposure at the MRHD, AUC (adult rats; [16]): 1.6 times
- NOAEL for neuronal vacuolation, multiple of clinical exposure at the MRHD, Cmax (adult rats; [16]): 4.5 times
- Dose causing neuronal vacuolation in layer I of the retrosplenial cortex without neuronal necrosis (adult rats; single subcutaneous dose): 60 mg/kg
- NOAEL [6]: 15 mg/kg
- Mutagenicity (Ames test): not mutagenic
- Genotoxicity (bone marrow): did not show genotoxic properties

Compound: OCCOCCN1CCN(C2=Nc3ccccc3Sc3ccccc32)CC1 [quetiapine]
- Discontinuation rate due to adverse events (MDD/TRD subjects): 23.7%

Compound: CN[C@]1(c2ccccc2Cl)CCCCC1=O [esketamine HCl, (S)-2-(2-chlorophenyl)-2-(methylamino)cyclohexanone hydrochloride]
- Histopathological lesions in the brain [7]: No histopathological lesions
- Maximum solubility, as base ([8]; room temperature, pH 4.5, factor 1.15): 180 mg esketamine base/mL
- Solubility ([8]; water, methanol, ethanol): freely soluble in water and in methanol, and soluble in ethanol
- Abnormal respiration, incidence ([3]; 36 mg intranasal): 22/24 ***
- Abnormal respiration: audible respiration, incidence ([3]; 36 mg intranasal): 10/24 ***
- Abnormal respiration: bradypnoea, incidence ([3]; 36 mg intranasal): 22/24 ***
- Ataxia, incidence ([3]; 36 mg intranasal): 24/24 ***
- Catalepsy, incidence ([3]; 36 mg intranasal): 20/24 ***
- Chromodacryorrhea, incidence ([3]; 36 mg intranasal): 0/24
- Decreased general activity, incidence ([3]; 36 mg intranasal): 23/24 ***
- Decubitus, incidence ([3]; 36 mg intranasal): 23/24 ***
- Increased general activity, incidence ([3]; 36 mg intranasal): 24/24 ***
- Narrowed palpebral fissure, incidence ([3]; 36 mg intranasal): 7/24**
- Piloerection, incidence ([3]; 36 mg intranasal): 0/24
- Salivation (out of normal), incidence ([3]; 36 mg intranasal): 23/24 ***
- Duration of severely decreased activity with decubitus, bradypnea, ptosis and catalepsy (anesthesia) ([3]; 36 mg, after the last instillation): 15 to 30 min
- Abnormal respiration, incidence ([3]; 54 mg intranasal): 22/24 ***
- Abnormal respiration: audible respiration, incidence ([3]; 54 mg intranasal): 3/24
- Abnormal respiration: bradypnoea, incidence ([3]; 54 mg intranasal): 21/24 ***
- Ataxia, incidence ([3]; 54 mg intranasal): 24/24 ***
- Catalepsy, incidence ([3]; 54 mg intranasal): 23/24 ***
- Chromodacryorrhea, incidence ([3]; 54 mg intranasal): 0/24
- Decreased general activity, incidence ([3]; 54 mg intranasal): 23/24 ***
- Decubitus, incidence ([3]; 54 mg intranasal): 23/24 ***
- Increased general activity, incidence ([3]; 54 mg intranasal): 24/24 ***
- Narrowed palpebral fissure, incidence ([3]; 54 mg intranasal): 10/24 ***
- Piloerection, incidence ([3]; 54 mg intranasal): 0/24
- Salivation (out of normal), incidence ([3]; 54 mg intranasal): 24/24 ***
- Duration of ataxia after the decrease in activity had subsided ([3]; 54 mg, hydrochloride): 1.5 to 3 h and 1 to 3 h
- Duration of ataxia after the decrease in activity had subsided ([3]; 72 mg): ≥ 3 h
- Abnormal respiration, incidence ([3]; 72 mg intranasal): 30/30 ***
- Abnormal respiration: audible respiration, incidence ([3]; 72 mg intranasal): 2/30
- Abnormal respiration: bradypnoea, incidence ([3]; 72 mg intranasal): 30/30 ***
- Catalepsy, incidence ([3]; 72 mg intranasal): 30/30 ***
- Chromodacryorrhea, incidence ([3]; 72 mg intranasal): 0/30
- Decreased general activity, incidence ([3]; 72 mg intranasal): 30/30 ***
- Decubitus, incidence ([3]; 72 mg intranasal): 30/30 ***
- Increased general activity, incidence ([3]; 72 mg intranasal): 29/30 ***
- Narrowed palpebral fissure, incidence ([3]; 72 mg intranasal): 22/30 ***
- Piloerection, incidence ([3]; 72 mg intranasal): 0/30
- Salivation (out of normal), incidence ([3]; 72 mg intranasal): 29/30 ***
- Histopathological lesions in the brain [9]: absent; also recorded: no neuropathological lesions
- Abnormal respiration, incidence ([10]; 18 mg/day intranasal): 2/12
- Abnormal respiration: audible respiration, incidence ([10]; 18 mg/day intranasal): 2/12
- Abnormal respiration: bradypnoea, incidence ([10]; 18 mg/day intranasal): 0/12
- Ataxia, incidence ([10]; 18 mg/day intranasal): 12/12***
- Chromodacryorrhea, incidence ([10]; 18 mg/day intranasal): 0/12
- Decreased general activity, incidence ([10]; 18 mg/day intranasal): 5/12
- Decubitus, incidence ([10]; 18 mg/day intranasal): 0/12
- Increased general activity, incidence ([10]; 18 mg/day intranasal): 12/12***
- Salivation (out of normal), incidence ([10]; 18 mg/day intranasal): 12/12***
- Abnormal respiration, incidence ([10]; 36 mg/day intranasal): 11/12***
- Abnormal respiration: audible respiration, incidence ([10]; 36 mg/day intranasal): 6/12**
- Abnormal respiration: bradypnoea, incidence ([10]; 36 mg/day intranasal): 11/12***
- Ataxia, incidence ([10]; 36 mg/day intranasal): 12/12***
- Chromodacryorrhea, incidence ([10]; 36 mg/day intranasal): 0/12
- Decreased general activity, incidence ([10]; 36 mg/day intranasal): 12/12***
- Decubitus, incidence ([10]; 36 mg/day intranasal): 2/12
- Increased general activity, incidence ([10]; 36 mg/day intranasal): 12/12***
- Salivation (out of normal), incidence ([10]; 36 mg/day intranasal): 12/12***
- Abnormal respiration, incidence ([10]; 54 mg/day intranasal): 12/12***
- Abnormal respiration: audible respiration, incidence ([10]; 54 mg/day intranasal): 6/12**
- Abnormal respiration: bradypnoea, incidence ([10]; 54 mg/day intranasal): 12/12***
- Ataxia, incidence ([10]; 54 mg/day intranasal): 12/12***
- Chromodacryorrhea, incidence ([10]; 54 mg/day intranasal): 0/12
- Decreased general activity, incidence ([10]; 54 mg/day intranasal): 12/12***
- Decubitus, incidence ([10]; 54 mg/day intranasal): 8/12***
- Increased general activity, incidence ([10]; 54 mg/day intranasal): 12/12***
- Salivation (out of normal), incidence ([10]; 54 mg/day intranasal): 12/12***
